# Laboratory results published in patent US7449290B2, “Method for selecting genetically transformed cells” (Expressive Research B.V., priority 2001, dated 2008).
# Assays:
# [1] = tested on: non-transformed Arabidopsis thaliana Col.O seedlings; experiment: Selection of transgenic Arabidopsis seedlings on trehalose medium; format: in vivo; settings: 100 mM trehalose, 1/2 MS agar, after 12 days at 22° C.
# Description: Arabidopsis thaliana Col.O plants were transformed with Aarobacterium with the binary plasmid as described in Example 2C, via the “floral dip” protocol (Clough and Bent, supra). The obtained dry seeds were sterilized and sown on 0.8% w/v solid agar medium having therein half-strength MS-salts (½ MS-salts), vitamins and MES buffer pH 5.7, supplemented with trehalose in a final concentration of 100 mM. The dishes were incubated for 3 days at 4° C. (stratification), whereafter a drop of ethanol was applied to the inside of the cover and dishes were transferred to 22° C. […] The transformed resistant seedlings are green, have long roots and primary leaves. […] In moist conditions the cotyledons become pale.
# [2] = tested on: Arabidopsis thaliana Col. O and La-er seedlings; experiment: Sensitivity to trehalose of Arabidopsis thaliana seedlings (Col.O and La-er) on agar medium; format: in vivo; settings: 100 mM trehalose in 0.8% agar, half-strength MS medium, pH 5.7; compared with 100 mM mannitol control
# Description: Seeds were sterilized using the gas-phase protocol of Clough and Bent (1998) (Clough S. J., Bent A. F., Plant J. 16(6): 735-743, 199.8) in Eppendorf tubes. The sterilized sees were then resuspended in sterile water and arranged on 0.8% w/v agar medium containing half-strength Murashigue and Skoog medium (MS medium; Murashigue T, Skoog F, Physiol. Plant. 15: 473-497, 1977), vitamins and MES buffer (pH 5.7), supplemented with mannitol or trehalose in a final concentration of 100 mM. […] The upper row of plants are the Arabidopsis thaliana Landsberg erecta (La-er), and the lower row of plants are the Arabidopsis thaliana Colombia (Col.O).
smiles,measurement,setting,value
"OC[C@H]1O[C@H](O[C@H]2O[C@H](CO)[C@@H](O)[C@H](O)[C@H]2O)[C@H](O)[C@@H](O)[C@@H]1O [trehalose, Trehalose]","phenotype of non-transformed, sensitive seedlings",[1],"accumulate anthocyanins, develop no primary leaves"
same,"root length of non-transformed, sensitive seedlings",[1],≤ 3 mm
same,development of plants from seeds (root system),[2],lesser development
